One data set concerns HN31 cells. The experiment in a line: Clonogenic test (surviving fraction), cancer cells. The class given is cell-based, human. Conditions: Dox 2 μg mL^−1 or Ptx 33 ng mL^−1 + GNP 2.4×10^10 mL^−1 + laser 45 mJ cm^−2 + X-rays 4 Gy 6 hours after PNB.
The test system of the next data set is NOM9 cells. Kind of data set: Clonogenic test (surviving fraction), normal cells. Conditions: quadrapeutics, X-rays 4 Gy 6 hours after PNB.
In data set [1] the test system is HN31 squamous carcinoma cells. The experiment in a line: Short-term complex viability (RRV, Trypan Blue exclusion and cell concentration) 72 h after treatment. The class given is cell-based, human. Conditions: for increase of cancer cell viability with plain (non-conjugated) nanocarriers compared with C225-conjugated carriers: GNP-C225 + PNB; for drug concentration required, drugs administered alone, to bring complex viability of cancer cells to the levels of PNB-enhanced release: no PNB. On the procedure: Short term response in vitro to co-localized administration of drug nanocarriers, GNPs and laser pulses. We used EGFR-positive HN31 (cancer) cells and EGFR-negative NOM9 (normal) cells. […] After incubation, GNPs and drug carriers were washed off. […] PNB lifetime was obtained for individual cells. The short-term viability was evaluated 72 hours after the treatment of samples as a complex viability parameter RRV that included the viability level V1 (measured in % with Trypan Blue exclusion test) and the cell concentration C: RRV=C/C0*V1,*100% , where C0 is the cell concentration in the intact sample.
The ability of the PNB mechanism to overcome drug resistance and to reduce non-specific toxicity was evaluated with two common drugs and carrier types. Water-soluble doxorubicin was encapsulated into PEG-coated 90 nm Doxil liposomes that were conjugated with anti-EGFR antibody, C225 (L-Dox-C225). Non-soluble paclitaxel was loaded into 14 nm micelles conjugated to the same antibody (M-Ptx-C225). Each type of drug-loaded nanocarrier was administered separately with gold NP-C225 conjugates. Cancer (HN31) and normal (NOM9) cells were incubated identically with NP-C225 and nanocarriers. Drug doses were reduced to the level that provided relatively high viability of both cell types when treated with nanocarriers alone (without PNBs).
After incubation, NPs and nanocarriers were washed off, the cells were exposed to a single laser pulse (70 ps, 532 nm, 40 mJ cm^−2) and the PNB lifetime was obtained for individual cells. […] The cell concentration and viability were measured at 72 hours after the PNB generation as the complex viability parameter that was normalized by that in intact cells (FIG. 8). […] (FIGS. 8a and 8b).
Short-term therapeutic response to quadrapeutics and other treatments in vitro. […] The radiation treatment was administered within 60 min after PNB generation, i.e. when the intracellular concentration of the released drug was close to the maximal.

From patent US20140120167A1, “MULTIFUNCTIONAL CHEMO- AND MECHANICAL THERAPEUTICS” (WILLIAM MARSH RICE UNIVERSITY, priority 2012, published 2014) come the findings set out here.

Source text for NOM9 cells: Evaluation of the long-term therapeutic response with a clonogenic test. We used EGFR-positive HN31 cells and EGFR-negative NOM9 cells. […] Thus the cells were exposed only to the internalized drug during the follow-up generation of PNBs. One to six hours afterwards, a single dose of X-rays (0-25 Gy) was applied.
To evaluate their colony-forming ability, the cells were trypsinized and replaced in 100 mm dishes in a free medium immediately after the treatment of samples. After 10 days of cultivation, the cells were stained with 0.5% crystal violet in absolute ethanol, and colonies with more than 50 cells were counted under a microscope. Plating efficiency was defined as the percentage of cells seeded that grew into colonies under a specific culture condition of a given cell line. […] All experiments were performed three times.

Take `CC(=O)O[C@H]1C(=O)[C@@]2(C)[C@H]([C@H](OC(=O)c3ccccc3)[C@]3(O)C[C@H](OC(=O)[C@H](O)[C@@H](NC(=O)c4ccccc4)c4ccccc4)C(C)=C1C3(C)C)[C@]1(OC(C)=O)CO[C@@H]1C[C@@H]2O` [paclitaxel]: the “cancer cell growth (clonogenicity) after quadrapeutics, mode D+PNB+XR6” value in the data set on HN31 cells is recorded as “strong therapeutic effect”. Further, the “viability of identically treated normal cells” value in the data set on NOM9 cells is “close to that of intact cells”. Also, in data set [1], the “fold higher concentration required for drug alone vs PNB-enhanced release” value worked out at 15 fold; the “increase of cancer cell viability with plain (non-conjugated) nanocarriers compared with C225-conjugated carriers” value was “several-fold”; the “drug concentration required, drugs administered alone, to bring complex viability of cancer cells to the levels of PNB-enhanced release” value was 1 µg/mL.
For the compound `COc1cccc2c1C(=O)c1c(O)c3c(c(O)c1C2=O)C[C@@](O)(C(=O)CO)C[C@@H]3O[C@H]1C[C@H](N)[C@H](O)[C@H](C)O1` [doxorubicin], in data set [1], the “fold higher concentration required for drug alone vs PNB-enhanced release” value stood at 18 fold; the “increase of cancer cell viability with plain (non-conjugated) nanocarriers compared with C225-conjugated carriers” value was “several-fold”; the “drug concentration required, drugs administered alone, to bring complex viability of cancer cells to the levels of PNB-enhanced release” value worked out at 85 µg/mL.
